Assay results published in US20040142944A1, “Compositions for nasal application” (priority 2001, published 2004).
“Also recorded” adds a separate entry of the source.

Test: nasal administration of cGMP PDE inhibitors with added local anaesthetic
Type: in vivo

OCc1ccccc1 [benzyl alcohol]
local irritation of the nasal mucosa: led to local irritation of the nasal mucosa | ability to reduce or prevent the disadvantages occurring on nasal administration of cGMP PDE inhibitors (unpleasant nasal condition, eye-watering, increased nasal airway resistance, nasal blockage) (added to cGMP PDE inhibitor): unable to reduce or prevent the disadvantages; also recorded: unsuitable for overcoming the disadvantages
